Measurements taken from patent US5686486A, “4-hydroxy-benzopyran-2-ones and 4-hydroxy-cycloalkyl[b]pyran-2-ones useful to treat retroviral infections” (priority 1995, dated 1997).
Several values for one entry are separate records, joined by “and”; a condition that tells them apart may be missing. Identical values can stand only once. Like-named read-outs stand apart in the source and are kept apart here.

Legend:
HIV-1 protease [1] = biological target: T1, HIV-1 protease (Human immunodeficiency virus type 1 group M subtype B, UniProt P04585); test: biochemical; conditions: read-out: HIV-1 FITC KI
Procedure: Determination of Ki values utilizes the same materials and equipment employed for percent inhibition studies. Two-fold serial dilutions are made for a given inhibitor from 2, 3 or 4 starting concentrations with a total of 24, 36 or 48 individual inhibitor concentrations. These dilutions are performed utilizing the BioMek robotics system. The assay consists of 10 μL of 40 nM HIV-1 protease, 10 μL of the various inhibitor concentrations, and 20 μL of 200 μM substrate (40 μL total). The reaction is allowed to proceed for 90 min at room temperature, terminated with 40 μL of avidin beads and processed (supra vide). An inhibitor with a known Ki is run in parallel to verify the validity of the assay. The data is processed utilizing a computer program employing a nonlinear least square analysis of the data to generate the Ki values.

HIV-1 protease [2] = biological target: T1, HIV-1 protease; test: biochemical
In short: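 Biotinylated, FITC-labeled peptide substrate (20 μl of 0.2 μM) incubated with HIV-1 protease (10 μl of 0.1 μM) and compound in 0.1 M sodium acetate pH 5.5, 1.0 M NaCl, 0.05% NP-40, 1 h, room temperature, dark. Streptavidin beads then capture uncleaved substrate; filtered labeled product read by fluorescence, giving percent inhibition.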

[3] = read-out: HIV-1 Protease % Inhib, dose 0.370 uM
[4] = read-out: HIV-1 Protease % Inhib, dose 1.100 uM
[5] = read-out: HIV-1 Protease % Inhib, dose 3.300 uM
[6] = read-out: HIV-1 Protease % Inhib, dose 10.000 uM
[7] = read-out: HIV-1 Protease % Inhib, dose 30.000 uM
[8] = dose 3.300 uM, read-out: HIV-1 Protease % Inhib
[9] = dose 10.000 uM, read-out: HIV-1 Protease % Inhib
[10] = dose 30.000 uM, read-out: HIV-1 Protease % Inhib
[11] = dose 1.100 uM, read-out: HIV-1 Protease % Inhib

Row | Ki (HIV-1 protease [1]) | inhibition at 10 µM (HIV-1 protease [2]; [9]) [%] | inhibition at 30 µM (HIV-1 protease [2]; [10]) [%] | Structure (SMILES) | also measured
1 | 1.23 nM | – | – | O=c1oc2c(c(O)c1[C@H](c1cccc(NS(=O)(=O)c3ccc(Cl)cc3)c1)C1CC1)CCCCCC2 [Example 250, (-)-4-Chloro-N-[3-[cyclopropyl(5,6,7,8,9,10-hexahydro-4-hydroxy-2-oxo-2H-cycloocta[b]pyran-3-yl)methyl]phenyl]-benzenesulfonamide] | –
2 | 1.25 nM | – | – | O=c1oc2c(c(O)c1[C@@H](c1cccc(NS(=O)(=O)c3ccc(Cl)cc3)c1)C1CC1)CCCCCC2 [Example 251, (+)-4-Chloro-N-[3-[cyclopropyl(5,6,7,8,9,10-hexahydro-4-hydroxy-2-oxo-2H-cycloocta[b]pyran-3-yl)methyl]phenyl]-benzenesulfonamide] | –
3 | 0.62 nM | – | – | N#Cc1ccc(S(=O)(=O)Nc2cccc([C@@H](c3c(O)c4c(oc3=O)CCCCCC4)C3CC3)c2)cc1 [Example 255, (-)-4-Cyano-N-[3-[cyclopropyl(5,6,7,8,9, 10-hexahydro-4-hydroxy-2-oxo-2H-cycloocta[b]pyran-3-yl)methyl]phenyl]-benzenesulfonamide] | –
4 | 7.6 nM | – | – | O=c1oc2c(c(O)c1[C@H](c1cccc(NS(=O)(=O)c3ccccc3)c1)C1CC1)CCCCCC2 [Example 258, (-)-N-[3-[Cyclopropyl(5,6,7,8,9,10-hexahydro4-hydroxy-2-oxo-2H-cycloocta[b]pyran-3-yl)methyl]phenyl]-benzenesulfonamide] | –
5 | 0.71 nM | – | – | N#Cc1ccc(S(=O)(=O)Nc2cccc([C@H](c3c(O)c4c(oc3=O)CCCCCC4)C3CC3)c2)cc1 [Example 259, (+)4-Cyano-N-[3-[cyclopropyl(5,6,7,8,9,10-hexahydro4-hydroxy-2-oxo-2H-cycloocta[b]pyran-3-yl)methyl]phenyl]-benzenesulfonamide] | –
6 | 3.1 nM | – | – | O=c1oc2c(c(O)c1[C@@H](c1cccc(NS(=O)(=O)/C=C/c3ccccc3)c1)C1CC1)CCCCCC2 [Example 261, (+)-N-[3-[Cyclopropyl(5,6,7,8,9,10-hexahydro-4-hydroxy-2-oxo-2H-cycloocta[b]pyran-3-yl)methyl]phenyl]-2-phenyl-[(E)]-ethenesulfonamide] | –
7 | 2.3 nM | – | – | O=c1oc2c(c(O)c1[C@@H](c1cccc(NS(=O)(=O)c3ccccc3)c1)C1CC1)CCCCCC2 [Example 401, N-[3-[Cyclopropyl(5,6,7,8,9,10-hexahydro-4-hydroxy-2-oxo-2H-cycloocta[b]pyran-3-yl)methyl]phenyl]-(R)-benzenesulfonamide] | –
8 | – | 73.6 | 86.8 | O=c1oc2c(c(O)c1C(c1ccc(NS(=O)(=O)c3ccc(Cl)cc3)cc1)C1CC1)CCCCCC2 (centres unmarked) [Example 473, Benzenesulfonamide, 4-chloro-N-[4-[cyclopropyl(5,6,7,8,9,10-hexahydro-4-hydroxy-2-oxo-2H-cycloocta[b]pyran-3-yl)methyl]phenyl]-] | inhibition at 3.3 µM (HIV-1 protease [2]; [8]): 14.4%
9 | – | 40.4 | 57.2 | O=c1oc2c(c(O)c1C(c1ccc(NS(=O)(=O)c3ccc(F)cc3)cc1)C1CC1)CCCCCC2 (centres unmarked) [Example 474, Benzenesulfonamide, 4-fluoro-N-[4-[cycloptopyl(5,6,7,8,9,10-hexahydro-4-hydroxy-2-oxo-2H-cycloocta[b]pyran-3-yl)methyl]phenyl]-] | inhibition at 3.3 µM (HIV-1 protease [2]; [8]): 11.4%
10 | – | 103 | 110 | O=c1oc2c(c(O)c1C(c1ccc(NS(=O)(=O)c3cccc([N+](=O)[O-])c3)cc1)C1CC1)CCCCCC2 (centres unmarked) [Example 475, Benzenesulfonamide, 3-nitro-N-[4-[cyclopropyl (5,6,7,8,9,10-hexahydro-4-hydroxy-2-oxo-2H-cycloocta[b]pyran-3-yl)methyl]phenyl]-] | inhibition at 0.37 µM (HIV-1 protease [2]; dose 0.370 uM, read-out: HIV-1 Protease % Inhib): 11.8%; inhibition at 1.1 µM (HIV-1 protease [2]; [11]): 27.9%; inhibition at 3.3 µM (HIV-1 protease [2]; [8]): 84.1%

Further lines, the compound ahead of its results:

Row | Structure (SMILES) | Ki (HIV-1 protease [1]) | inhibition at 10 µM (HIV-1 protease [2]; [9]) [%] | inhibition at 30 µM (HIV-1 protease [2]; [10]) [%] | also measured
11 | CCCC1CCCCCc2c1oc(=O)c([C@@H](c1ccccc1)C1CC1)c2O (mixture of isomers) [Example 232, 3-(R)-(Cyclopropylphenylmethyl)-4-hydroxy-10-(R and S)-propyl-5,6,7,8,9,10-hexahydro-cycloocta[b]pyran-2-one] | 30 nM | – | – | inhibition at 0.123 µM (HIV-1 protease [2]; read-out: HIV-1 Protease % Inhib, dose 0.123 uM): 19.3%; inhibition at 0.37 µM (HIV-1 protease [2]; [3]): 51.2%; inhibition at 1.1 µM (HIV-1 protease [2]; [4]): 80.4%; inhibition at 3.3 µM (HIV-1 protease [2]; [5]): 95.3%; inhibition at 10 µM (HIV-1 protease [2]; [6]): 104%; inhibition at 30 µM (HIV-1 protease [2]; [7]): 95%
12 | O=c1oc2c(c(O)c1C(c1ccccc1)C1CC1)CCCCC2 (single isomer, unassigned) [Example 230, (R or S)-3-(Cyclopropylphenylmethyl)-6,7,8,9-tetrahydro-4-hydroxy-cyclohepta[b]pyran-2(5H)-one] | 264 nM and 280 nM | – | – | –
13 | O=c1oc2c(c(O)c1C(c1ccccc1)C1CC1)CCCCC2 (single isomer, unassigned) [Example 231, (R or S)-3-(Cyclopropylphenylmethyl)-6,7,8,9-tetrahydro-4-hydroxy-cyclohepta[b]pyran-2(5H)-one] | 109 nM and 126 nM | – | – | –
14 | CCCC1CCCCCc2c1oc(=O)c([C@@H](c1ccccc1)C1CC1)c2O (single isomer, unassigned) [Example 233, 3-(R)-(Cyclopropylphenylmethyl)4-hydroxy-10-(R or S)-propyl-5,6,7,8,9,10-hexahydro-cycloocta[b]pyran-2-one] | 147 nM and 180 nM and 302 nM | – | – | –
15 | CCCC1CCCCCc2c1oc(=O)c([C@@H](c1ccccc1)C1CC1)c2O (single isomer, unassigned) [Example 234, 3-(R)-(Cyclopropylphenylmethyl)4-hydroxy-10-(R or S)-propyl-5,6,7,8,9,10-hexahydro-cycloocta[b]pyran-2-one] | 12.8 nM and 13 nM and 18.8 nM | – | – | –
16 | CCCC1CCCCCc2c1oc(=O)c([C@H](c1ccccc1)C1CC1)c2O (single isomer, unassigned) [Example 236, 3-(S)-(Cyclopropylphenylmethyl)-4-hydroxy-10-(R or S)-propyl-5,6,7,8,9,10-hexahydro-cycloocta[b]pyran-2-one] | 10 nM and 8 nM | – | – | –
17 | CCCC1CCCCCc2c1oc(=O)c([C@H](c1ccccc1)C1CC1)c2O (single isomer, unassigned) [Example 237, 3-(S)-(Cyclopropylphenylmethyl)-4-hydroxy-10-(R or S)-propyl-5,6,7,8,9,10-hexahydro-cycloocta[b]pyran-2-one] | 60 nM and 117 nM | – | – | –
18 | O=c1oc2c(c(O)c1[C@@H](c1ccccc1)C1CC1)CCCCCC2 [Example 228] | 34.8 nM | – | – | –
19 | O=c1oc2c(c(O)c1[C@H](c1cccc(NS(=O)(=O)/C=C/c3ccccc3)c1)C1CC1)CCCCCC2 [Example 257, (-)-N-[3-[Cyclopropyl(5,6,7,8,9,10-hexahydro4-hydroxy-2-oxo-2H cycloocta[b]pyran-3-yl)methyl]phenyl]-2-phenyl-[(E)]-ethenesulfonamide] | 3 nM | – | – | –
20 | Cn1cnc(S(=O)(=O)Nc2ccc(C(c3c(O)c4c(oc3=O)CCCCCC4)C3CC3)cc2)c1 (centres unmarked) [Example 476, N-[4-[Cyclopropyl (5,6,7,8,9,10-hexahydro-4-hydroxy-2-oxo-2H-cycloocta[b]pyran-3-yl)methyl]phenyl]-1-methyl-1H-imidazole-4-sulfonamide] | – | 83 | 83.1 | inhibition at 1.1 µM (HIV-1 protease [2]; [11]): 19.5%; inhibition at 3.3 µM (HIV-1 protease [2]; [8]): 53.1%
21 | CC(C)(C)OC(=O)NCc1ccc(C(c2c(O)c3c(oc2=O)CCCCCC3)C2CC2)o1 (stereo not drawn) [Example 480, 3-(α-Cyclopropyl(5-(N-carbo-t-butoxy)aminomethyl)furfur-2-yl)-4-hydroxy-5,6,7,8,9,10-hexahydrocycloocata[b]pyran-2-one] | – | 45.5 | 78.2 | inhibition at 3.3 µM (HIV-1 protease [2]; [8]): 19.2%
22 | O=c1oc2c(c(O)c1C(c1ccccc1)c1ccccc1)CCCCCC2 [Example 481, 3-(Diphenylmethyl)-5,6,7,8,9,10-hexahydro-4-hydroxy-2H-cycloocta[b]pyran-2-one] | – | – | – | inhibition at 0.37 µM (HIV-1 protease [2]; [3]): 118%; inhibition at 1.1 µM (HIV-1 protease [2]; [4]): 51.2%; inhibition at 3.3 µM (HIV-1 protease [2]; [5]): 85.3%; inhibition at 10 µM (HIV-1 protease [2]; [6]): 98%; inhibition at 30 µM (HIV-1 protease [2]; [7]): 107%
23 | O=c1oc2c(c(O)c1C(Cc1ccccc1)Cc1ccccc1)CCCCC2 [Example 482, 3-(1,3-Diphenyl-2-propyl)-5,6,7,8,9-pentahydro-4-hydroxy-2H-cyclohepta[b]pyran-2-one] | – | 63.2 | 92.6 | inhibition at 3.3 µM (HIV-1 protease [2]; [8]): 20%
24 | Nc1cc(N)cc(C(c2c(O)c3c(oc2=O)CCCCCC3)C2CC2)c1 (centres unmarked) [Example 484, 3-[Cyclopropyl-(3,5-diamino-phenyl)-methyl]-4-hydroxy-5,6,7,8,9,10-hexahydro-cycloocta[b]pyran-2-one] | – | 37.2 | 51.6 | inhibition at 3.3 µM (HIV-1 protease [2]; [8]): 17.7%
25 | O=c1oc2c(c(O)c1C(c1cc(NS(=O)(=O)c3cccc4cccnc34)cc(NS(=O)(=O)c3cccc4cccnc34)c1)C1CC1)CCCCCC2 (centres unmarked) [Example 485, N-[3-[Cyclopropyl-(4-hydroxy-2-oxo-5,6,7,8,9,10-hexahydro-2H-cycloocta[b]pyran-3-yl)-methyl]-5-8-quinolinesulfonylamino-phenyl]-8-quinolinesulfonamide] | – | 13.1 | 54.2 | –
